Laboratory results reported in patent publication US7598258B2, “Quinoline derivatives and quinazoline derivatives inhibiting autophosphorylation of macrophage colony stimulating factor receptor” (Kirin Beer Kabushiki Kaisha, priority 2002, dated 2009).

target: T1, mouse c-fms (Mus musculus, UniProt P09581); test: Inhibition of c-fms autophosphorylation in macrophage-like cell line BAC-1.2F5 by M-CSF stimulation (ELISA); format: cell-based; settings: BAC-1.2F5 cells, human recombinant M-CSF 50 ng/ml, read-out: c-fms autophosphorylation 50% inhibitory concentration (IC50)
T1 construct: Macrophage-like cell line BAC-1.2F5 which expresses c-fms as a M-CSF receptor on cell membranes; endogenous in cells; host or cells: BAC-1.2F5 mouse macrophage-like cell line
T1 sequence (P09581 20-977): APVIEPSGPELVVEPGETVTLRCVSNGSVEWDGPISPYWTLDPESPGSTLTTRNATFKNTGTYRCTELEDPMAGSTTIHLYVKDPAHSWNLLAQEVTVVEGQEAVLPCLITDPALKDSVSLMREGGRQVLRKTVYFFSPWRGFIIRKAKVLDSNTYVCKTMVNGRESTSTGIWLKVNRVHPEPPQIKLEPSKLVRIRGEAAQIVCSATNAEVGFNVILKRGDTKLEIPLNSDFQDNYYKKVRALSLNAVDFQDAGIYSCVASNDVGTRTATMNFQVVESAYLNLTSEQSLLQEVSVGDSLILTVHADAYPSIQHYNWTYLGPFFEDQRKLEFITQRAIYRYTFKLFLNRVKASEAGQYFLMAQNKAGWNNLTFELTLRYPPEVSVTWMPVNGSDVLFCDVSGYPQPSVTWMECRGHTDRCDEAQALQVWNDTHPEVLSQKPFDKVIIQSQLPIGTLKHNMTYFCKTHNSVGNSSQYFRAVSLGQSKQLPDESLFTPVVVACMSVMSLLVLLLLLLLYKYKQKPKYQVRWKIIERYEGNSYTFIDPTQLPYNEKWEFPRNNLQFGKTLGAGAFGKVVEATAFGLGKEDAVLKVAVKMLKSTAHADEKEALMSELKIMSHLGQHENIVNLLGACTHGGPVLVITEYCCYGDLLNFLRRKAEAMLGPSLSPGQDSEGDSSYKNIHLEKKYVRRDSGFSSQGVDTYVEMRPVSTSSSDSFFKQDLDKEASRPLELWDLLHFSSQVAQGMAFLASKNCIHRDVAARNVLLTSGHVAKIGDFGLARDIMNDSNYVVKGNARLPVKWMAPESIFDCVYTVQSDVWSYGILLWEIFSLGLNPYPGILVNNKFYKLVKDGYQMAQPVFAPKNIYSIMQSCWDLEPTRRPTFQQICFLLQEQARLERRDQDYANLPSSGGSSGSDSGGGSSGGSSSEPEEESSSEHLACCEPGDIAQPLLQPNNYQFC
How it was run: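 BAC-1.2F5 cells serum-starved (0.1% FCS) 12 h, preincubated with compound 1 h at 37° C, then stimulated 6 min with 50 ng/ml human recombinant M-CSF. Lysates captured on anti-phosphotyrosine plates, detected with anti-c-fms antiserum and peroxidase read-out at 450 nm. IC50 from inhibition normalised between ±M-CSF controls.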

| Compound | IC50 |
| --- | --- |
| COc1cc2nccc(Oc3ccc(NC(=O)N[C@@H](C)c4ccc(F)cc4)cc3)c2cc1OC [Example 2, N-{4-[(6,7-Dimethoxy-4-quinolyl)oxy]phenyl}-N′-[(1S)-1-(4-fluorophenyl)ethyl]urea] | 2.2 nM |
| COc1cc2nccc(Oc3ccc(NC(=O)N[C@H](C)c4ccc(F)cc4)cc3)c2cc1OC [Example 3, N-{4-[(6,7-Dimethoxy-4-quinolyl)oxy]phenyl}-N′-[(1R)-1-(4-fluorophenyl)ethyl]urea] | 2.4 nM |
| COc1cc2nccc(Oc3ccc(NC(=O)N[C@@H](C)c4ccc([N+](=O)[O-])cc4)cc3)c2cc1OC [Example 35, N-{4-[(6,7-Dimethoxy-4-quinolyl)oxy]phenyl}-N′-[(1S)-1-(4-nitrophenyl)ethyl]urea] | 12.1 nM |
| COc1cc2nccc(Oc3ccc(NC(=O)N[C@H](C)c4ccc([N+](=O)[O-])cc4)cc3)c2cc1OC [Example 36, N-{4-[(6,7-Dimethoxy-4-quinolyl)oxy]phenyl}-N′-[(1R)-1-(4-nitrophenyl)ethyl]urea] | 31.1 nM |
| COc1cc2nccc(Oc3ccc(NC(=O)N[C@@H](C)c4ccc(C)cc4)cc3)c2cc1OC [Example 41, N-{4-[(6,7-Dimethoxy-4-quinolyl)oxy]phenyl}-N′-[(1S)-1-(4-methylphenyl)ethyl]urea] | 2.8 nM |
| COc1cc2nccc(Oc3ccc(NC(=O)N[C@H](C)c4ccc(C)cc4)cc3)c2cc1OC [Example 42, N-{4-[(6,7-Dimethoxy-4-quinolyl)oxy]phenyl}-N′-[(1R)-1-(4-methylphenyl)ethyl]urea] | 38.5 nM |
| COc1cc2nccc(Oc3ccc(NC(=O)N[C@H](C)c4cccc(Br)c4)cc3)c2cc1OC [Example 45, N-[(1R)-1-(3-Bromophenyl)ethyl]-N′-{4-[(6,7-dimethoxy-4-quinolyl)oxy]phenyl}urea] | 22.2 nM |
| COc1cc2nccc(Oc3ccc(NC(=O)N[C@@H](C)c4cccc(Br)c4)cc3)c2cc1OC [Example 46, N-[(1S)-1-(3-Bromophenyl)ethyl]-N′-{4-[(6,7-dimethoxy-4-quinolyl)oxy]phenyl}urea] | 7.3 nM |
| COc1cc2nccc(Oc3ccc(NC(=O)N[C@@H](C)c4ccc(Cl)cc4)cc3)c2cc1OC [Example 47, N-[(1S)-1-(4-Chlorophenyl)ethyl]-N′-{4-[(6,7-dimethoxy-4-quinolyl)oxy]phenyl}urea] | 3.8 nM |
| COc1cc2nccc(Oc3ccc(NC(=O)N[C@H](C)c4ccc(Cl)cc4)cc3)c2cc1OC [Example 48, N-[(1R)-1-(4-Chlorophenyl)ethyl]-N′-{4-[(6,7-dimethoxy-4-quinolyl)oxy]phenyl}urea] | 40 nM |
| COc1cccc([C@H](C)NC(=O)Nc2ccc(Oc3ccnc4cc(OC)c(OC)cc34)cc2)c1 [Example 49, N-{4-[(6,7-Dimethoxy-4-quinolyl)oxy]phenyl}-N′-[(1S)-1-(3-methoxyphenyl)ethyl]urea] | 3.2 nM |
| COc1cccc([C@@H](C)NC(=O)Nc2ccc(Oc3ccnc4cc(OC)c(OC)cc34)cc2)c1 [Example 50, N-{4-[(6,7-Dimethoxy-4-quinolyl)oxy]phenyl}-N′-[(1R)-1-(3-methoxyphenyl)ethyl]urea] | 7.2 nM |
